# Read-outs that look alike come from different tables or passages of the source.
# Assays:
# Androgen receptor (AR) = molecular target: T1, Androgen receptor (AR) (Homo sapiens, UniProt P10275, T878A); experiment: Assessment of AR proteolytic activity (Western blotting of LNCap cell lysates); format: cell-based; conditions: 24 hours of treatment, Western blotting quantified with Image J
# T1 construct: 5.5×10^5 LNCap cells were injected into each well of a 6-well plate; endogenous in cells; host or cells: LNCaP
# T1 sequence (P10275 1-920 T878A): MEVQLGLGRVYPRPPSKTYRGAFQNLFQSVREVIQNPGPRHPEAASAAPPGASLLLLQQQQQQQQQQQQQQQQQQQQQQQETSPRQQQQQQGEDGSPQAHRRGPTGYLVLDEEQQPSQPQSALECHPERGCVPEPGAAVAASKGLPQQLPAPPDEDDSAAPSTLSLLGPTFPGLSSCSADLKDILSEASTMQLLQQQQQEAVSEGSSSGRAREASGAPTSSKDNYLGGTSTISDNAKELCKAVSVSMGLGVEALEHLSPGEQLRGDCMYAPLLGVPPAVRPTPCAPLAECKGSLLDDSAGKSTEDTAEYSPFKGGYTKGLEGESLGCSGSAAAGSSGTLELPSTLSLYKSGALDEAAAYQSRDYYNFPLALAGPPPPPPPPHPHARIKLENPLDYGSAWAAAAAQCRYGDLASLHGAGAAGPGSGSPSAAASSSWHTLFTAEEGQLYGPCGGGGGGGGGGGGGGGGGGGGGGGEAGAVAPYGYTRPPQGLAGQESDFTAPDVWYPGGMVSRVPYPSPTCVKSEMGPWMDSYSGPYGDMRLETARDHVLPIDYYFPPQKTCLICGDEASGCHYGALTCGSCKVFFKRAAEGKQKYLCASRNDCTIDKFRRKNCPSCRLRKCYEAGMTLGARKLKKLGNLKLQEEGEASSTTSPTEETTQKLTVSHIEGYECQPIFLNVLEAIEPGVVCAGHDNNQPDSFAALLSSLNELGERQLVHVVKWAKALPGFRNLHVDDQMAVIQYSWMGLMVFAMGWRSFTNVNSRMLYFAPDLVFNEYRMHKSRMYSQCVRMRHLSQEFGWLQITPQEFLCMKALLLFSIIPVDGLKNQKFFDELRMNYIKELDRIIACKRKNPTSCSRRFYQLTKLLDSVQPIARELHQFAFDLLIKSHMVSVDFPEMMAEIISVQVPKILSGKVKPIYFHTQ
# Outline: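 LNCap cells seeded at 5.5×10^5 per well and treated with compound for 24 hours. Lysates prepared in RIPA buffer (pH 7.5, with protease inhibitors). AR protein levels assessed by Western blot with densitometric quantification.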
# VCaP cells [1] = system: VCaP cells
# VCaP cells [2] = experiment: Cytotoxicity assessment (Cell-titer-glo cell viability), VCaP; conditions: read-out: VCaP (CC50); VCaP cells, 6 days of treatment, Cell-titer-glo, vs DMSO
SMILES,"Degradation (1 μM treated in LNCaP, % AR remaining) (Androgen receptor (AR)) [%]",CC50 (VCaP cells [1]) [nM],CC50 (VCaP cells [2]) [nM]
"CC1(C)[C@H](NC(=O)c2ccc(N3CCN(CCCC4CCN(c5ccc6nnn(C7CCC(=O)NC7=O)c(=O)c6c5)CC4)CC3)cc2)C(C)(C)[C@H]1Oc1ccc(C#N)c(Cl)c1 (some centres unmarked) [Example 48, N-((1r,3r)-3-(3-chloro-4-cyanophenoxy)-2,2,4,4-tetramethylcyclobutyl)-4-(4-(3-(1-(3-(2,6-dioxopiperidin-3-yl)-4-oxo-3,4-dihydrobenzo[d][1,2,3]triazin-6-yl)piperidin-4-yl)propyl)piperazin-1-yl)benzamide]",35.2,77,–
"[C-]#[N+]c1ccc(OC2C(C)(C)C(NC(=O)c3ccc(N4CCN(CCc5cn(-c6ccc7nnn(C8CCC(=O)NC8=O)c(=O)c7c6)nn5)CC4)cc3)C2(C)C)cc1Cl (centres unmarked) [Example 77, N-((1r,3r)-3-(3-chloro-4-isocyanophenoxy)-2,2,4,4-tetramethylcyclobutyl)-4-(4-(2-(1-(3-(2,6-dioxopiperidin-3-yl)-4-oxo-3,4-dihydrobenzo[d][1,2,3]triazin-6-yl)-1H-1,2,3-triazol-4-yl)ethyl)piperazin-1-yl)benzamide]",74,46.6,–
"CC1(C)C(NC(=O)c2ccc(N3CCN(CCCC4CCN(C(=O)COc5ccc6nnn(C7CCC(=O)NC7=O)c(=O)c6c5)CC4)CC3)cc2)C(C)(C)C1Oc1ccc(C#N)c(Cl)c1 (centres unmarked) [Example 45, N-((1r,3r)-3-(3-chloro-4-cyanophenoxy)-2,2,4,4-tetramethylcyclobutyl)-4-(4-(3-(1-(2-((3-(2,6-dioxopiperidin-3-yl)-4-oxo-3,4-dihydrobenzo[d][1,2,3]triazin-6-yl)oxy)acetyl)piperidin-4-yl)propyl)piperazin-1-yl)benzamide]",21.1,46.6,–
"CC1(C)C(NC(=O)c2ccc(N3CCN(C=C4CCN(c5ccc6nnn(C7CCC(=O)NC7=O)c(=O)c6c5)CC4)CC3)cc2)C(C)(C)C1Oc1ccc(C#N)c(Cl)c1 (centres unmarked) [Example 64, N-((1r,3r)-3-(3-chloro-4-cyanophenoxy)-2,2,4,4-tetramethylcyclobutyl)-4-(4-((1-(3-(2,6-dioxopiperidin-3-yl)-4-oxo-3,4-dihydrobenzo[d][1,2,3]triazin-6-yl)piperidin-4-ylidene)methyl)piperazin-1-yl)benzamide]",56,76.2,–
"CC1(C)C(NC(=O)c2ccc(N3CCN(CC4CCN(C(=O)CN5CCN(c6ccc7nnn(C8CCC(=O)NC8=O)c(=O)c7c6)CC5)CC4)CC3)cc2)C(C)(C)C1Oc1ccc(C#N)c(Cl)c1 (centres unmarked) [Example 58, N-((1r,3r)-3-(3-chloro-4-cyanophenoxy)-2,2,4,4-tetramethylcyclobutyl)-4-(4-((1-(2-(4-(3-(2,6-dioxopiperidin-3-yl)-4-oxo-3,4-dihydrobenzo[d][1,2,3]triazin-6-yl)piperazin-1-yl)acetyl)piperidin-4-yl)methyl)piperazin-1-yl)benzamide]",11.4,330,–
"CC1(C)C(NC(=O)c2ccc(N3CCN(CCCC4CCN(C(=O)C5CCN(c6ccc7nnn(C8CCC(=O)NC8=O)c(=O)c7c6)CC5)CC4)CC3)cc2)C(C)(C)C1Oc1ccc(C#N)c(Cl)c1 (centres unmarked) [Example 46, N-((1r,3r)-3-(3-chloro-4-cyanophenoxy)-2,2,4,4-tetramethylcyclobutyl)-4-(4-(3-(1-(1-(3-(2,6-dioxopiperidin-3-yl)-4-oxo-3,4-dihydrobenzo[d][1,2,3]triazin-6-yl)piperidine-4-carbonyl)piperidin-4-yl)propyl)piperazin-1-yl)benzamide]",15.6,–,52.2
"CC1(C)C(NC(=O)c2ccc(N3CCN(C=C4CCN(C(=O)C5CCN(c6ccc7nnn(C8CCC(=O)NC8=O)c(=O)c7c6)CC5)CC4)CC3)cc2)C(C)(C)C1Oc1ccc(C#N)c(Cl)c1 (centres unmarked) [Example 65, N-((1r,3r)-3-(3-chloro-4-cyanophenoxy)-2,2,4,4-tetramethylcyclobutyl)-4-(4-((1-(1-(3-(2,6-dioxopiperidin-3-yl)-4-oxo-3,4-dihydrobenzo[d][1,2,3]triazin-6-yl)piperidine-4-carbonyl)piperidin-4-ylidene)methyl)piperazin-1-yl)benzamide]",25,–,44

# Now from value to compound, other results behind:
"Degradation (1 μM treated in LNCaP, % AR remaining) (Androgen receptor (AR)) [%]",SMILES,CC50 (VCaP cells [1]) [nM],CC50 (VCaP cells [2]) [nM]
40,"CC1(C)[C@H](NC(=O)c2ccc(N3CC4CC3CN4CC3CCN(C(=O)C4CN(c5ccc6nnn(C7CCC(=O)NC7=O)c(=O)c6c5)C4)CC3)cc2)C(C)(C)[C@H]1Oc1ccc(C#N)c(Cl)c1 (some centres unmarked) [Example 73, N-((1r,3r)-3-(3-chloro-4-cyanophenoxy)-2,2,4,4-tetramethylcyclobutyl)-4-(5-((1-(1-(3-(2,6-dioxopiperidin-3-yl)-4-oxo-3,4-dihydrobenzo[d][1,2,3]triazin-6-yl)azetidine-3-carbonyl)piperidin-4-yl)methyl)-2,5-diazabicyclo[2.2.1]heptan-2-yl)benzamide]",79.5,–
5,"CC1(C)C(NC(=O)c2ccc(-n3cc(CC4CCN(C(=O)C5CN(c6ccc7nnn(C8CCC(=O)NC8=O)c(=O)c7c6)C5)CC4)nn3)cc2)C(C)(C)C1Oc1ccc(C#N)c(Cl)c1 (centres unmarked) [Example 90, N-((1r,3r)-3-(3-chloro-4-cyanophenoxy)-2,2,4,4-tetramethylcyclobutyl)-4-(4-((1-(1-(3-(2,6-dioxopiperidin-3-yl)-4-oxo-3,4-dihydrobenzo[d][1,2,3]triazin-6-yl)azetidine-3-carbonyl)piperidin-4-yl)methyl)-1H-1,2,3-triazol-1-yl)benzamide]",19.6,–
27.3,"CC1(C)C(NC(=O)c2ccc(N3CCN(CCCOC4CCN(C(=O)COc5ccc6nnn(C7CCC(=O)NC7=O)c(=O)c6c5)CC4)CC3)cc2)C(C)(C)C1Oc1ccc(C#N)c(Cl)c1 (centres unmarked) [Example 38, N-((1r,3r)-3-(3-chloro-4-cyanophenoxy)-2,2,4,4-tetramethylcyclobutyl)-4-(4-(3-((1-(2-((3-(2,6-dioxopiperidin-3-yl)-4-oxo-3,4-dihydrobenzo[d][1,2,3]triazin-6-yl)oxy)acetyl)piperidin-4-yl)oxy)propyl)piperazin-1-yl)benzamide]",43.2,–
9,"CC1(C)C(NC(=O)c2ccc(C3CCN(CCOC4CCN(C(=O)C5CN(c6ccc7nnn(C8CCC(=O)NC8=O)c(=O)c7c6)C5)CC4)CC3)cc2)C(C)(C)C1Oc1ccc(C#N)c(Cl)c1 (centres unmarked) [Example 75, N-((1r,3r)-3-(3-chloro-4-cyanophenoxy)-2,2,4,4-tetramethylcyclobutyl)-4-(1-(2-((1-(1-(3-(2,6-dioxopiperidin-3-yl)-4-oxo-3,4-dihydrobenzo[d][1,2,3]triazin-6-yl)azetidine-3-carbonyl)piperidin-4-yl)oxy)ethyl)piperidin-4-yl)benzamide]",30.1,–
14,"CC1(C)C(NC(=O)c2ccc(C#CCC3CCN(CC4CCN(c5ccc6nnn(C7CCC(=O)NC7=O)c(=O)c6c5)CC4)CC3)cc2)C(C)(C)C1Oc1ccc(C#N)c(Cl)c1 (centres unmarked) [Example 88, N-((1r,3r)-3-(3-chloro-4-cyanophenoxy)-2,2,4,4-tetramethylcyclobutyl)-4-(3-(1-((1-(3-(2,6-dioxopiperidin-3-yl)-4-oxo-3,4-dihydrobenzo[d][1,2,3]triazin-6-yl)piperidin-4-yl)methyl)piperidin-4-yl)prop-1-yn-1-yl)benzamide]",14.5,–
21.3,"CC1(C)C(NC(=O)c2ccc(N3CCN(CC4(O)CCN(C(=O)C5CN(c6ccc7nnn(C8CCC(=O)NC8=O)c(=O)c7c6)C5)CC4)CC3)cc2)C(C)(C)C1Oc1ccc(C#N)c(Cl)c1 (centres unmarked) [Example 56, N-((1r,3r)-3-(3-chloro-4-cyanophenoxy)-2,2,4,4-tetramethylcyclobutyl)-4-(4-((1-(1-(3-(2,6-dioxopiperidin-3-yl)-4-oxo-3,4-dihydrobenzo[d][1,2,3]triazin-6-yl)azetidine-3-carbonyl)-4-hydroxypiperidin-4-yl)methyl)piperazin-1-yl)benzamide]",36.1,–

# Reference: patent US20240018123A1, “COMPOUND FOR INHIBITING OR DISINTEGRATING ANDROGEN RECEPTOR, AND PHARMACEUTICAL USE THEREOF” (KOREA RESEARCH INSTITUTE OF CHEMICAL TECHNOLOGY, priority 2020, published 2024)
